Measured values reported in the NIST ThermoML archive (doi:10.1016/j.jct.2019.06.023).
± gives the expanded uncertainty stated by the source.

Experiment: mn = molality of the nth substance listed, in mol/kg
Details: 100 kPa, Liquid; for speed of sound: Frequency=3 MHz, Single path-length method; for mass density: Vibrating tube method

With `O=C([O-])C(=O)[O-].[K+].[K+]` [potassium oxalate] + O the speed of sound (288.15 K, m1 = 0.2) was 1497 ± 1.4 m/s, the speed of sound (288.15 K, m1 = 0.4) was 1525.3 ± 2.1 m/s and the speed of sound (288.15 K, m1 = 0.6) was 1552.3 ± 1.3 m/s. It also gave a speed of sound (288.15 K, m1 = 0.8) of 1580.5 ± 2.6 m/s, a mass density (288.15 K, m1 = 0.2) of 1023.62 ± 0.58 kg/m3 and a mass density (288.15 K, m1 = 0.4) of 1046.97 ± 0.96 kg/m3. For the same compound, the mass density (288.15 K, m1 = 0.6) was 1069.58 ± 1.4 kg/m3, the mass density (288.15 K, m1 = 0.8) was 1092.28 ± 1.9 kg/m3 and the speed of sound (298.15 K, m1 = 0.2) was 1524.8 ± 1.4 m/s. The speed of sound (298.15 K, m1 = 0.4) was 1550.9 ± 1.6 m/s, the speed of sound (298.15 K, m1 = 0.6) was 1576.4 ± 2 m/s and the speed of sound (298.15 K, m1 = 0.8) was 1602.3 ± 2.3 m/s. It also gave a mass density (298.15 K, m1 = 0.2) of 1021.1 ± 0.57 kg/m3, a mass density (298.15 K, m1 = 0.4) of 1044.13 ± 0.97 kg/m3 and a mass density (298.15 K, m1 = 0.6) of 1066.44 ± 1.4 kg/m3. For the same compound, the mass density (298.15 K, m1 = 0.8) was 1088.95 ± 1.8 kg/m3, the speed of sound (308.15 K, m1 = 0.2) was 1545.9 ± 1.4 m/s and the speed of sound (308.15 K, m1 = 0.4) was 1570.5 ± 1.6 m/s. It also gave a speed of sound (308.15 K, m1 = 0.6) of 1594.5 ± 1.9 m/s, a speed of sound (308.15 K, m1 = 0.8) of 1618.8 ± 2.2 m/s and a mass density (308.15 K, m1 = 0.2) of 1017.79 ± 0.57 kg/m3. The mass density (308.15 K, m1 = 0.4) was 1040.55 ± 0.96 kg/m3, the mass density (308.15 K, m1 = 0.6) was 1062.69 ± 1.4 kg/m3 and the mass density (308.15 K, m1 = 0.8) was 1084.89 ± 1.8 kg/m3. The speed of sound (318.15 K, m1 = 0.2) was 1561.2 ± 1.3 m/s, the speed of sound (318.15 K, m1 = 0.4) was 1584.6 ± 2.4 m/s and the speed of sound (318.15 K, m1 = 0.6) was 1607.1 ± 1.6 m/s. It also gave a speed of sound (318.15 K, m1 = 0.8) of 1630.1 ± 2.2 m/s, a mass density (318.15 K, m1 = 0.2) of 1013.81 ± 0.56 kg/m3 and a mass density (318.15 K, m1 = 0.4) of 1036.39 ± 0.65 kg/m3. The mass density (318.15 K, m1 = 0.6) was 1058.36 ± 1.6 kg/m3 and the mass density (318.15 K, m1 = 0.8) was 1080.46 ± 1.8 kg/m3.
